US20200024278A1, “COMPOSITION COMPRISING ANTIBIOTIC COMPOUND AND AN HETEROCYCLIC COMPOUND AND THEIR USE IN PREVENTING OR TREATING BACTERIAL INFECTIONS” (MUTABILIS, priority 2016, published 2020)

Columns and labels:
Assay in all cases: MIC, broth microdilution (CLSI), substance alone or ATB combined with compound at 4 or 8 μg/mL
PAE UFR90 = format: cell-based, P. aeruginosa; settings: PAE UFR90; for MIC ATB combined with compound / MIC ATB combined with Example compound: compound @4 μg/ml
Procedure, shortened: (§1)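 Growth inhibition endpoint, read visually after 16-20 h at 35° C in ambient air. Cation-adjusted Mueller-Hinton broth, inoculum 5·10^5 CFU/mL, CLSI M7-A7 protocol.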

PAE 105250 = format: cell-based, P. aeruginosa; settings: PAE 105250; for MIC ATB combined with compound / MIC ATB combined with Example compound: compound @4 μg/ml
Procedure, shortened: as §1

PAE UFR48 = format: cell-based, P. aeruginosa; settings: PAE UFR48; for MIC ATB combined with compound / MIC ATB combined with Example compound: compound @4 μg/ml
Procedure, shortened: as §1

ECL P99 = format: cell-based, E. cloacae; settings: ECL P99
Procedure, shortened: as §1

SAU 29213 = format: cell-based, S. aureus; settings: for MIC ATB combined with compound / MIC ATB combined with Example compound: compound @4 μg/ml, SAU 29213
Procedure, shortened: as §1

ABA 19606 = format: cell-based, A. baumannii; settings: Acinetobacter baumannii, substance alone, read-out: MIC
Procedure, shortened: as §1

ABA UFR161 = format: cell-based, A. baumannii; settings: Acinetobacter baumannii, substance alone, read-out: MIC
Procedure, shortened: as §1

KPN 6299 = format: cell-based, K. pneumoniae; settings: MIC of CIP, compound @4 μg/ml
Procedure, shortened: as §1

KPN UFR42 = format: cell-based, K. pneumoniae; settings: KPN UFR42; for MIC ATB combined with Example compound: compound @4 μg/ml
Procedure, shortened: as §1

KPN BAA-1898 = format: cell-based, K. pneumoniae; settings: KPN BAA-1898
Procedure, shortened: as §1

ECO 190317 = format: cell-based, E. coli; settings: ECO 190317
Procedure, shortened: as §1

ECO UFR39 = format: cell-based, E. coli; settings: ECO UFR39; for MIC ATB combined with Example compound: compound @4 μg/ml
Procedure, shortened: as §1

SPN 49619 = format: cell-based, S. pneumoniae; settings: SPN 49619; for MIC ATB combined with compound / MIC ATB combined with Example compound: compound @4 μg/ml
Procedure, shortened: as §1

[1] = Pseudomonas aeruginosa, substance alone, read-out: MIC
[2] = Escherichia coli, substance alone, read-out: MIC

MIC ATB combined with compound (PAE UFR90; ATB ATM): 128 µg/mL | MIC ATB combined with compound (PAE UFR90; ATB FEP): 4 µg/mL | MIC ATB combined with compound (PAE UFR90; ATB FOS): 4 µg/mL | MIC ATB combined with compound (PAE UFR90; ATB MEM): 1 µg/mL | MIC ATB combined with compound (PAE UFR90; ATB PIP): 16 µg/mL | MIC ATB combined with Example compound (PAE UFR90; MIC of CIP): 1 µg/mL | MIC ATB combined with Example compound (PAE UFR90; MIC of CPO): 8 µg/mL | MIC (PAE UFR90; [1]): > 128 µg/mL | MIC ATB combined with compound (PAE 105250; ATB ATM): 8 µg/mL | MIC ATB combined with compound (PAE 105250; ATB FEP): 8 µg/mL | MIC ATB combined with compound (PAE 105250; ATB FOS): >128 µg/mL | MIC ATB combined with compound (PAE 105250; ATB MEM): 4 µg/mL | MIC ATB combined with compound (PAE 105250; ATB PIP): 32 µg/mL | MIC ATB combined with Example compound (PAE 105250; MIC of CIP): 0.125 µg/mL | MIC ATB combined with Example compound (PAE 105250; MIC of CPO): 32 µg/mL | MIC (PAE 105250; [1]): > 32 µg/mL | MIC ATB combined with compound (PAE UFR48; ATB ATM): 128 µg/mL | MIC ATB combined with compound (PAE UFR48; ATB FEP): 32 µg/mL | MIC ATB combined with compound (PAE UFR48; ATB FOS): 32 µg/mL | MIC ATB combined with compound (PAE UFR48; ATB MEM): 2 µg/mL | MIC ATB combined with compound (PAE UFR48; ATB PIP): 32 µg/mL | MIC ATB combined with Example compound (PAE UFR48; MIC of CIP): 4 µg/mL | MIC ATB combined with Example compound (PAE UFR48; MIC of CPO): >32 µg/mL | MIC (PAE UFR48; [1]): 128 µg/mL | MIC (ECL P99; Enterobacter cloacae, substance alone, read-out: MIC): 2 µg/mL | MIC ATB combined with Example compound (ECL P99; MIC of CIP, compound @4 μg/ml): <0.031 µg/mL | MIC ATB combined with compound (SAU 29213; ATB ATM): <=0.031 μg/mL | MIC ATB combined with compound (SAU 29213; ATB FEP): <0.031 µg/mL | MIC ATB combined with compound (SAU 29213; ATB FOS): <0.125 µg/mL | MIC ATB combined with compound (SAU 29213; ATB MEM): <0.031 µg/mL | MIC ATB combined with compound (SAU 29213; ATB PIP): <0.031 µg/mL | MIC ATB combined with Example compound (SAU 29213; MIC of CIP): <0.031 µg/mL | MIC ATB combined with Example compound (SAU 29213; MIC of CLI): <0.0010 µg/mL | MIC ATB combined with Example compound (SAU 29213; MIC of CPO): <0.031 µg/mL | MIC ATB combined with Example compound (SAU 29213; MIC of DAP): <0.0020 µg/mL | MIC ATB combined with Example compound (SAU 29213; MIC of ERY): <=0.0020 μg/mL | MIC ATB combined with Example compound (SAU 29213; MIC of LZD): <0.0078 µg/mL | MIC ATB combined with Example compound (SAU 29213; MIC of RIF): 0.002 µg/mL | MIC ATB combined with Example compound (SAU 29213; MIC of SYN): 0.0039 µg/mL | MIC ATB combined with Example compound (SAU 29213; MIC of VAN): <0.0039 µg/mL | MIC (SAU 29213; Staphylococcus aureus, substance alone, SAU 29213 (MSSA 29213), read-out: MIC): 8 µg/mL | MIC (ABA 19606): > 32 µg/mL | MIC (ABA UFR161): > 32 µg/mL | MIC ATB combined with Example compound (KPN 6299): <=0.031 μg/mL | MIC (KPN UFR42; Klebsiella pneumoniae, substance alone, read-out: MIC): 8 µg/mL | MIC ATB combined with Example compound (KPN UFR42; MIC of CIP): <0.031 µg/mL | MIC ATB combined with Example compound (KPN UFR42; MIC of CPO): <0.031 µg/mL | MIC (KPN BAA-1898; Klebsiella pneumoniae, BAA1898, substance alone, read-out: MIC): 2 µg/mL | MIC ATB combined with Example compound (KPN BAA-1898; MIC of CIP, compound @4 μg/ml): <0.031 µg/mL | MIC (ECO 190317; [2]): 0.5 µg/mL | MIC ATB combined with Example compound (ECO 190317; MIC of CIP, compound @4 μg/ml): <0.031 µg/mL | MIC (ECO UFR39; [2]): 2 µg/mL | MIC ATB combined with Example compound (ECO UFR39; MIC of CIP): <0.031 µg/mL | MIC ATB combined with Example compound (ECO UFR39; MIC of CPO): <0.031 µg/mL | MIC ATB combined with compound (SPN 49619; ATB ATM): <0.031 µg/mL | MIC ATB combined with compound (SPN 49619; ATB FEP): <=0.031 μg/mL | MIC ATB combined with compound (SPN 49619; ATB FOS): 4 µg/mL | MIC ATB combined with compound (SPN 49619; ATB MEM): <=0.031 μg/mL | MIC ATB combined with compound (SPN 49619; ATB PIP): <0.031 µg/mL | MIC ATB combined with Example compound (SPN 49619; MIC of CIP): 0.25 µg/mL | MIC ATB combined with Example compound (SPN 49619; MIC of CLI): 0.0039 µg/mL | MIC ATB combined with Example compound (SPN 49619; MIC of CPO): <=0.031 μg/mL | MIC ATB combined with Example compound (SPN 49619; MIC of DAP): <0.0020 µg/mL | MIC ATB combined with Example compound (SPN 49619; MIC of ERY): <0.0020 µg/mL | MIC ATB combined with Example compound (SPN 49619; MIC of LZD): <=0.0078 μg/mL | MIC ATB combined with Example compound (SPN 49619; MIC of RIF): 0.00024 µg/mL | MIC ATB combined with Example compound (SPN 49619; MIC of SYN): <=0.0020 μg/mL | MIC ATB combined with Example compound (SPN 49619; MIC of VAN): <0.0039 µg/mL | MIC (SPN 49619; Streptococcus pneumoniae, substance alone, read-out: MIC): 8 µg/mL
Compound: O=C1N2CC(c3ncco3)=C[C@H](C2)N1OS(=O)(=O)[O-].[Na+] [Example 9, sodium [(5R)-3-(oxazol-2-yl)-7-oxo-1,6-diazabicyclo[3.2.1]oct-3-en-6-yl] sulfate]
